From patent US11021470B2, “2-substituted quinazoline compounds comprising a substituted heterocyclic group and methods of use thereof” (Araxes Pharma LLC, priority 2015, dated 2021)

molecular target: T1, KRAS G12C 1-169, his-tagged protein, GDP-loaded (Homo sapiens, UniProt P01116, G12C); test: KRAS G12C covalent binding (% modification) by mass spectrometry, ten or three minute incubation; settings: covalent binding to KRAS G12C after a ten minute incubation period
T1 construct: KRAS G12C 1-169, his-tagged protein, GDP-loaded
Summary of the method: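 GDP-loaded protein in 20 mM Hepes, 150 mM NaCl, 1 mM MgCl2 was incubated with compound (final 100, 30 or 10 μM; 2% DMSO) at room temperature, then quenched with formic acid. Intact-protein LC-MS with charge-envelope deconvolution gave masses and intensities of modified and unmodified species.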

| Structure (SMILES) | Binding % |
| --- | --- |
| C=CC(=O)N1C[C@@H](C)N(c2nc(N3CC(N(C)C)C3)nc3c(F)c(-c4c(O)cccc4F)c(Cl)cc23)C[C@H]1C [Compound 80, 1-((2R,5R)-4-(6-chloro-2-(3-(dimethylamino)azetidin-1-yl)-8-fluoro-7-(2-fluoro-6-hydroxyphenyl)quinazolin-4-yl)-2,5-dimethylpiperazin-1-yl)prop-2-en-1-one] | + (+ indicates binding activity greater than 0% and up to 50%) |
| C=CC(=O)N1C[C@H](C)N(c2nc(N3CC(N(C)C)C3)nc3c(F)c(-c4c(O)cccc4F)c(Cl)cc23)C[C@H]1C (atropisomer, axis not shown) [Compound 53, 1-((2R,5S)-4-((R)-6-chloro-2-(3-(dimethylamino)azetidin-1-yl)-8-fluoro-7-(2-fluoro-6-hydroxyphenyl)quinazolin-4-yl)-2,5-dimethylpiperazin-1-yl)prop-2-en-1-one] | ++ (++ indicates binding activity from 50 to 90%) |

same assay, conditions: covalent binding to KRAS G12C, % modification after a three minute incubation period

| Structure (SMILES) | Binding % |
| --- | --- |
| C=CC(=O)N1C[C@H](C)N(c2nc(N3CC(N(C)C)C3)nc3c(F)c(-c4c(C)ccc5[nH]nc([N+](=O)[O-])c45)c(Cl)cc23)C[C@H]1C [Compound 297, 1-((2R,5S)-4-(6-chloro-2-(3-(dimethylamino)azetidin-1-yl)-8-fluoro-7-(5-methyl-3-nitro-1H-indazol-4-yl)quinazolin-4-yl)-2,5-dimethylpiperazin-1-yl)prop-2-en-1-one] | + (+ indicates binding activity greater than 0% and up to 50%) |
| C=CC(=O)N1C[C@H](C)N(c2nc(N3CC(N(C)C)C3)nc3c(F)c(-c4c(C)ccc5[nH]ncc45)c(Cl)cc23)C[C@H]1C (atropisomer, axis not shown) [Compound 130, 1-((2R,5S)-4-(6-chloro-2-(3-(dimethylamino)azetidin-1-yl)-8-fluoro-7-((R)-5-methyl-1H-indazol-4-yl)quinazolin-4-yl)-2,5-dimethylpiperazin-1-yl)prop-2-en-1-one] | +++ (+++ indicates binding activity greater than 90%) |
| C=CC(=O)N1C[C@H](C)N(c2nc(N3CC(N(C)C)C3)nc3c(Cl)c(-c4c(O)cccc4F)c(Cl)cc23)C[C@H]1C [Compound 251, 1-((2R,5S)-4-(6,8-dichloro-2-(3-(dimethylamino)azetidin-1-yl)-7-(2-fluoro-6-hydroxyphenyl)quinazolin-4-yl)-2,5-dimethylpiperazin-1-yl)prop-2-en-1-one] | ++ (++ indicates binding activity from 50 to 90%) |
| C=CC(=O)N1C[C@H](C)N(c2nc(OCCc3cncnc3)nc3c(F)c(-c4c(O)cccc4F)c(Cl)cc23)C[C@H]1C (atropisomer, axis not shown) [Compound 262, 1-((2R,5S)-4-(6-chloro-8-fluoro-7-((S)-2-fluoro-6-hydroxyphenyl)-2-(2-(pyrimidin-5-yl)ethoxy)quinazolin-4-yl)-2,5-dimethylpiperazin-1-yl)prop-2-en-1-one] | +++ (+++ indicates binding activity greater than 90%) |
| [2H]C([2H])([2H])N(C1CN(c2nc(N3C[C@@H](C)N(C(=O)C=C)C[C@@H]3C)c3cc(Cl)c(-c4c(C)ccc5[nH]ncc45)c(F)c3n2)C1)C([2H])([2H])[2H] (atropisomer, axis not shown) [Compound 226, 1-((2R,5S)-4-(6-chloro-2-(3-(bis(tridueteromethyl)amino)azetidin-1-yl)-8-fluoro-7-((R)-5-methyl-1H-indazol-4-yl)quinazolin-4-yl)-2,5-dimethylpiperazin-1-yl)prop-2-en-1-one] | +++ (+++ indicates binding activity greater than 90%) |
| C=CC(=O)N1C[C@H](C)N(c2nc(OCCN3CC(F)(F)C3)nc3c(F)c(-c4c(O)cccc4F)c(Cl)cc23)C[C@H]1C (atropisomer, axis not shown) [Compound 90, 1-((2R,5S)-4-(6-chloro-2-(2-(3,3-difluoroazetidin-1-yl)ethoxy)-8-fluoro-7-((S)-2-fluoro-6-hydroxyphenyl)quinazolin-4-yl)-2,5-dimethylpiperazin-1-yl)prop-2-en-1-one] | ++ (++ indicates binding activity from 50 to 90%) |
| C=CC(=O)N1C[C@H](C)N(c2nc(OCCCN3CC(F)(F)C3)nc3c(F)c(-c4c(O)cccc4F)c(Cl)cc23)C[C@H]1C [Compound 250, 1-((2R,5S)-4-(6-chloro-2-(3-(3,3-difluoroazetidin-1-yl)propoxy)-8-fluoro-7-(2-fluoro-6-hydroxyphenyl)quinazolin-4-yl)-2,5-dimethylpiperazin-1-yl)prop-2-en-1-one] | +++ (+++ indicates binding activity greater than 90%) |
| C=CC(=O)N1C[C@@H](C)N(c2nc(N3CC(N(C)C)C3)nc3c(F)c(-c4c(O)cccc4F)c(Cl)cc23)C[C@H]1C [Compound 86, 1-((2R,5R)-4-(6-chloro-2-(3-(dimethylamino)azetidin-1-yl)-8-fluoro-7-(2-fluoro-6-hydroxyphenyl)quinazolin-4-yl)-2,5-dimethylpiperazin-1-yl)prop-2-en-1-one] | + (+ indicates binding activity greater than 0% and up to 50%) |
| [2H]C([2H])([2H])N(C1CN(c2nc(N3C[C@@H](C)N(C(=O)C=C)C[C@@H]3C)c3cc(Cl)c(-c4c(O)cccc4F)c(F)c3n2)C1)C([2H])([2H])[2H] [Compound 196, 1-((2R,5S)-4-(2-(3-(bis(trideuteromethyl)amino)azetidin-1-yl)-6-chloro-8-fluoro-7-(2-fluoro-6-hydroxyphenyl)quinazolin-4-yl)-2,5-dimethylpiperazin-1-yl)prop-2-en-1-one] | +++ (+++ indicates binding activity greater than 90%) |
| C=CC(=O)N1C[C@H](C)N(c2nc(N3CC(N(C)C)C3)nc3c(F)c(-c4c(F)ccc(Cl)c4O)c(Cl)cc23)C[C@H]1C [Compound 260, 1-((2R,5S)-4-(6-chloro-7-(3-chloro-6-fluoro-2-hydroxyphenyl)-2-(3-(dimethylamino)azetidin-1-yl)-8-fluoroquinazolin-4-yl)-2,5-dimethylpiperazin-1-yl)prop-2-en-1-one] | ++ (++ indicates binding activity from 50 to 90%) |
| C=CC(=O)N1C[C@H](C)N(c2nc(N3CC(N(C)C)C3)nc3c(F)c(-c4c(O)cccc4F)c(Cl)cc23)C[C@@H]1C [Compound 94, 1-((2S,5S)-4-(6-chloro-2-(3-(dimethylamino)azetidin-1-yl)-8-fluoro-7-(2-fluoro-6-hydroxyphenyl)quinazolin-4-yl)-2,5-dimethylpiperazin-1-yl)prop-2-en-1-one] | + (+ indicates binding activity greater than 0% and up to 50%) |
| C=CC(=O)N1C[C@H](C)N(c2nc(N3CC(N(C)C)C3)nc3c(F)c(-c4c(C)ccc5c(C)n[nH]c45)c(Cl)cc23)C[C@H]1C [Compound 246, 1-((2R,5S)-4-(6-chloro-7-(3,6-dimethyl-1H-indazol-7-yl)-2-(3-(dimethylamino)azetidin-1-yl)-8-fluoroquinazolin-4-yl)-2,5-dimethylpiperazin-1-yl)prop-2-en-1-one] | + (+ indicates binding activity greater than 0% and up to 50%) |
| C=CC(=O)N1C[C@H](C)N(c2nc(OCCc3cncn3C)nc3c(F)c(-c4c(O)cccc4F)c(Cl)cc23)C[C@H]1C (atropisomer, axis not shown) [Compound 284, 1-((2R,5S)-4-(6-chloro-8-fluoro-7-((S)-2-fluoro-6-hydroxyphenyl)-2-(2-(1-methyl-1H-imidazol-5-yl)ethoxy)quinazolin-4-yl)-2,5-dimethylpiperazin-1-yl)prop-2-en-1-one] | +++ (+++ indicates binding activity greater than 90%) |
